{"source": "PubChem BioAssay (NCI)", "experiment_in_all_cases": "inhibition of tumour cell growth, NCI panel, 384-well format", "key": {"COLO 205 colon": {"tested_on": "COLO 205 colon"}, "HCT-116 colon": {"tested_on": "HCT-116 colon"}, "HCT-15 colon": {"tested_on": "HCT-15 colon"}, "HT29 colon": {"tested_on": "HT29 colon"}, "LOX IMVI melanoma": {"tested_on": "LOX IMVI melanoma"}, "MDA-MB-468 breast": {"tested_on": "MDA-MB-468 breast"}, "MOLT-4 leukemia": {"tested_on": "MOLT-4 leukemia"}, "NCI-H322M lung": {"tested_on": "NCI-H322M lung"}, "PC-3 prostate": {"tested_on": "PC-3 prostate"}, "SF-295 CNS": {"tested_on": "SF-295 CNS"}, "SK-MEL-2 melanoma": {"tested_on": "SK-MEL-2 melanoma"}, "SW-620 colon": {"tested_on": "SW-620 colon"}, "U251 glioblastoma": {"tested_on": "U251 glioblastoma"}}, "note": "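GI50 = concentration required for 50% inhibition of growth. TGI is the concentration that stops growth completely.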", "data": [{"smiles": "COc1cc(C)[nH]c(=O)c1CNC(=O)c1c(C)n([C@H](C)C2CCN(CC(F)(F)F)CC2)c2ccccc12", "values": [{"measurement": "GI50", "setting": "COLO 205 colon", "value": 97.3, "unit": "µM"}, {"measurement": "TGI", "setting": "COLO 205 colon", "value": "> 100", "unit": "µM"}, {"measurement": "GI50", "setting": "HCT-116 colon", "value": 66.8, "unit": "µM"}, {"measurement": "TGI", "setting": "HCT-116 colon", "value": "> 100", "unit": "µM"}, {"measurement": "GI50", "setting": "HCT-15 colon", "value": 67, "unit": "µM"}, {"measurement": "TGI", "setting": "HCT-15 colon", "value": "> 100", "unit": "µM"}, {"measurement": "GI50", "setting": "HT29 colon", "value": 39.7, "unit": "µM"}, {"measurement": "TGI", "setting": "HT29 colon", "value": "> 100", "unit": "µM"}, {"measurement": "GI50", "setting": "LOX IMVI melanoma", "value": 31.7, "unit": "µM"}, {"measurement": "TGI", "setting": "LOX IMVI melanoma", "value": 94.1, "unit": "µM"}, {"measurement": "GI50", "setting": "MDA-MB-468 breast", "value": 21.4, "unit": "µM"}, {"measurement": "TGI", "setting": "MDA-MB-468 breast", "value": 51.3, "unit": "µM"}, {"measurement": "GI50", "setting": "MOLT-4 leukemia", "value": 16.5, "unit": "µM"}, {"measurement": "TGI", "setting": "MOLT-4 leukemia", "value": 31.3, "unit": "µM"}, {"measurement": "GI50", "setting": "NCI-H322M lung", "value": "> 83.6", "unit": "µM"}, {"measurement": "TGI", "setting": "NCI-H322M lung", "value": "> 100", "unit": "µM"}, {"measurement": "GI50", "setting": "PC-3 prostate", "value": 55.5, "unit": "µM"}, {"measurement": "TGI", "setting": "PC-3 prostate", "value": "> 100", "unit": "µM"}, {"measurement": "GI50", "setting": "SF-295 CNS", "value": 76.6, "unit": "µM"}, {"measurement": "TGI", "setting": "SF-295 CNS", "value": "> 100", "unit": "µM"}, {"measurement": "GI50", "setting": "SK-MEL-2 melanoma", "value": 38.6, "unit": "µM"}, {"measurement": "TGI", "setting": "SK-MEL-2 melanoma", "value": "> 100", "unit": "µM"}, {"measurement": "GI50", "setting": "SW-620 colon", "value": 52, "unit": "µM"}, {"measurement": "TGI", "setting": "SW-620 colon", "value": "> 91.9", "unit": "µM"}, {"measurement": "GI50", "setting": "U251 glioblastoma", "value": 98, "unit": "µM"}, {"measurement": "TGI", "setting": "U251 glioblastoma", "value": "> 100", "unit": "µM"}]}]}
